Test results as given in patent US7709488B2, “Imidazopyridine-derivatives as inducible no-synthase inhibitors” (Altana Pharma AG, priority 2003, dated 2010).

Assays:
[1] = biological target: human inducible NO-synthase (Homo sapiens, UniProt P35228); assay: Measurement of inducible NO-synthase activity ([3H]arginine conversion, crude cytosolic fraction); format: biochemical; conditions: 0.1 μM arginine, 45 to 60 min at 37° C., pH 7.2; for IC50: read-out: Inhibition of iNOS activity [measured as −logIC50 (mol/l)] (converted)
Method: Measurement of Inducible NO-Synthase Activity
The assay is performed in 96-well microtiter F-plates (Greiner, Frickenhausen, FRG) in a total volume of 100 μl in the presence of 100 nM calmodulin, 226 μM CaCl2, 477 μM MgCl2, 5 μM flavin-adenine-dinucleotide (FAD), 5 μM flavin mononucleotide (FMN), 0.1 mM NADPH, 7 mM glutathione, 10 μM BH4 and 100 mM HEPES pH 7.2. Arginine concentrations are 0.1 μM for enzyme inhibition experiments. 150000 dpm of [^3H]arginine are added to the assay mixture. Enzyme reaction is started by the addition of 4 μg of a crude cytosolic fraction containing human inducible NO-synthase and the reaction mixture is incubated for 45 to 60 min at 37° C. Enzyme reaction is stopped by adding 10 μl of 2M MES-buffer pH 5.0. 50 μl of the incubation mixture are transferred into a MADP N65 filtration microtiter plate (Millipore, Eschbom, FRG) containing already 50 μl of AG-50W-X8 cation exchange resin (Biorad, München, FRG). The resin in the Na loaded form is pre-equilibrated in water and 70 μl (corresponding to 50 μl dry beads) are pipetted under heavy stirring with a 8 channel pipette into the filtration plate. After pipetting 50 μl of the enzyme reaction mixture onto the filtration plates, the plates are placed on a filtration manifold (Porvair, Shepperton, UK) and the flow through is collected in Pico scintillation plates (Packard, Meriden, Conn.). The resin in the filtration plates is washed with 75 μl of water (1×50 μl and 1×25 μl) which is also collected in the same plate as the sample. The total flow through of 125 μl is mixed with 175 μl of Microscint-40 scintillation cocktail (Packard) and the scintillation plate is sealed with TopSeal P-foil (Packard). Scintillation plates are counted in a scintillation counter.
For the measurement of inducible NO-synthase-inhibiting potencies of compounds increasing concentrations of inhibitors were included into the incubation mixture. IC50-values were calculated from the percent inhibition at given concentrations by nonlinear least square fitting.
The inhibitory values determined for the compounds according to the invention follow from the following table A, in which the compound numbers correspond to the example numbers.

COc1ccnc(CCc2nc3cc(-c4ccc(S(=O)(=O)N5CCN(C)CC5)cc4)cnc3[nH]2)c1 [Compound 1]
melting point: 193 to 195 °C
IC50 [1]: 19.5 nM

COc1ccnc(CCc2nc3cc(-c4ccc(S(=O)(=O)N5CCN(Cc6ccccc6)CC5)cc4)cnc3[nH]2)c1 [Compound 2, 2-[2-(4-Methoxypyridin-2-yl)-ethyl]-6-[4-(4-benzylpiperazin-1-yl-sulfonyl)-phenyl]-3H-imidazo-[4,5-b]pyridine]
melting point: 160 to 162 °C
IC50 [1]: 35.5 nM

COc1ccnc(CCc2nc3cc(-c4ccc(S(=O)(=O)N5CCN(c6ccccc6)CC5)cc4)cnc3[nH]2)c1 [Compound 3, 2-[2-(4-Methoxypyridin-2-yl)ethyl]-6-[4-(4-phenylpiperazin-1-yl-sulfonyl)-phenyl]-3H-imidazo-[4,5-b]pyridine]
melting point: 218 to 220 °C
IC50 [1]: 14.5 nM

COc1ccnc(CCc2nc3cc(-c4ccc(S(=O)(=O)N5CCN(c6ccc(C#N)cc6)CC5)cc4)cnc3[nH]2)c1 [Compound 4, 2-[2-(4-Methoxypyridin-2-yl)ethyl]-6-{4-[4-(4-cyanophenyl)-piperazin-1-yl-sulfonyl]-phenyl}-3H-imidazo-[4,5-b]pyridine]
melting point: 217 to 219 °C
IC50 [1]: 30.2 nM

COc1ccnc(CCc2nc3cc(-c4ccc(S(=O)(=O)N5CCN(c6ccc(C)cc6)CC5)cc4)cnc3[nH]2)c1 [Compound 5, 2-[2-(4-Methoxypyridin-2-yl)ethyl]-6-[4-(4-p-tolyl-piperazin-1-yl-sulfonyl)-phenyl]-3H-imidazo-[4,5-b]pyridine]
melting point: 150 to 154 °C
IC50 [1]: 26.3 nM

COc1ccnc(CCc2nc3cc(-c4ccc(S(=O)(=O)N5CCN(c6ccc(C)cc6C)CC5)cc4)cnc3[nH]2)c1 [Compound 6, 6-{4-[4-(2,4-Dimethylphenyl)-piperazin-1-yl-sulfonyl]-phenyl}-2-[2-(4-methoxy-pyridin-2-yl)ethyl]-3H-imidazo[4,5-b]pyridine]
melting point: 208 to 209 °C
IC50 [1]: 126 nM

COc1ccnc(CCc2nc3cc(-c4ccc(S(=O)(=O)N5CCN(c6cc(Cl)cc(Cl)c6)CC5)cc4)cnc3[nH]2)c1 [Compound 7, 6-{4-[4-(3,5-Dichlorphenyl)-piperazin-1-yl-sulfonyl]-phenyl}-2-[2-(4-methoxy-pyridin-2-yl)ethyl]-3H-imidazo[4,5-b]pyridine]
Inhibition of iNOS activity [measured as −logIC50] [1]: 6.51

COCCN1CCN(S(=O)(=O)c2ccc(-c3cnc4[nH]c(CCc5cc(OC)ccn5)nc4c3)cc2)CC1 [Compound 8, 6-{4-[4-(2-Methoxy-ethyl)-piperazin-1-yl-sulfonyl]-phenyl}-2-[2-(4-methoxy-pyridin-2-yl)ethyl]-3H-imidazo[4,5-b]pyridine]
melting point: 206 to 208 °C
IC50 [1]: 42.7 nM

COc1ccnc(CCc2nc3cc(-c4ccc(S(=O)(=O)N5CCN(C(C)=O)CC5)cc4)cnc3[nH]2)c1 [Compound 9, 6-[4-(4-Acetyl-piperazin-1-yl-sulfonyl)-phenyl]-2-[2-(4-methoxy-pyridin-2-yl)ethyl]-3H-imidazo[4,5-b]pyridine]
melting point: 138 to 140 °C
IC50 [1]: 29.5 nM

COc1ccnc(CCc2nc3cc(-c4ccc(S(=O)(=O)N5CCOCC5)cc4)cnc3[nH]2)c1 [Compound 10, 2-[2-(4-Methoxypyridin-2-yl)ethyl]-6-[4-(morpholin-4-yl-sulfonyl)-phenyl]-3H-imidazo-[4,5-b]pyridine]
melting point: 210 to 212 °C
IC50 [1]: 22.9 nM

COc1ccnc(CCc2nc3cc(-c4ccc(S(=O)(=O)N5CCCN(C)CC5)cc4)cnc3[nH]2)c1 [Compound 11, 2-[2-(4-Methoxypyridin-2-yl)ethyl]-6-[4-(4-methyl-[1,4]diazepan-1-yl-sulfonyl)-phenyl]-3H-imidazo-[4,5-b]pyridine]
melting point: 160 to 162 °C
IC50 [1]: 12.9 nM

COc1ccnc(CCc2nc3cc(-c4ccc(S(=O)(=O)N5CCC(C)CC5)cc4)cnc3[nH]2)c1 [Compound 12, 2-[2(4-Methoxypyridin-2-yl)ethyl]-6-[4-(4-methyl-piperidin-1-yl-sulfonyl)-phenyl]-3H-imidazo-[4,5-b]pyridine]
melting point: 186 to 188 °C
IC50 [1]: 25.1 nM

COc1ccnc(CCc2nc3cc(-c4ccc(S(=O)(=O)N5CCC(C(=O)c6ccccc6)CC5)cc4)cnc3[nH]2)c1 [Compound 13, 6-[4-(4-Benzoyl-piperidin-1-yl-sulfonyl)-phenyl]-2-[2-(4-methoxy-pyridin-2-yl)ethyl]-3H-imidazo[4,5-b]pyridine]
melting point: 174 to 175 °C
IC50 [1]: 33.1 nM

COc1ccnc(CCc2nc3cc(-c4ccc(S(=O)(=O)N5CCC6(CC5)OCCO6)cc4)cnc3[nH]2)c1 [Compound 14, 6-[4-(1,4-dioxa-8-azaspiro[4.5]decan-8-yl-sulfonyl)-phenyl]-2-[2-(4-methoxy-pyridin-2-yl)ethyl]-3H-imidazo[4,5-b]pyridine]
melting point: 121 to 122 °C
IC50 [1]: 26.3 nM

COc1ccnc(CCc2nc3cc(-c4ccc(S(=O)(=O)N5CCc6cc(OC)c(OC)cc6C5)cc4)cnc3[nH]2)c1 [Compound 15, 6-[4-(6,7-Dimethoxy-1,2,3,4-tetrahydroisoquinolin-2-yl-sulfonyl)-phenyl]-2-[2-(4-methoxy-pyridin-2-yl)ethyl]-3H-imidazo[4,5-b]pyridine]
melting point: 207 to 208 °C
IC50 [1]: 34.7 nM

COc1ccnc(CCc2nc3cc(-c4ccc(S(=O)(=O)N5CCNC(=O)CC5)cc4)cnc3[nH]2)c1 [Compound 16, 6-[4-(1,4-Diazepan-5-one-1-yl-sulfonyl)-phenyl]-2-[2-(4-methoxy-pyridin-2-yl)ethyl]-3H-imidazo[4,5-b]pyridine]
melting point: 230 to 232 °C
IC50 [1]: 24 nM

COc1ccnc(CCc2nc3cc(-c4ccc(S(=O)(=O)NCCO)cc4)cnc3[nH]2)c1 [Compound 17, N-(2-Hydroxyethyl)-4-{2-[2-(4-methoxypyridin-2-yl)ethyl]-3H-imidazo[4,5-b]pyridin-6-yl}benzenesulfonamid]
melting point: 218 to 220 °C
IC50 [1]: 42.7 nM

COc1ccnc(CCc2nc3cc(-c4ccc(S(=O)(=O)N(CCO)CCO)cc4)cnc3[nH]2)c1 [Compound 18, N,N-Bis-(2-hydroxyethyl)-4-{2-[2-(4-methoxypyridin-2-yl)ethyl]-3H-imidazo-[4,5-b]pyridin-6-yl}benzenesulfonamid]
melting point: 127 to 128 °C
IC50 [1]: 91.2 nM

COc1ccnc(CCc2nc3cc(-c4ccc(S(=O)(=O)NCc5ccccc5)cc4)cnc3[nH]2)c1 [Compound 19, N-Benzyl-4-{2-[2-(4-methoxypyridin-2-yl)ethyl]-3H-imidazo-[4,5-b]pyridin-6-yl}benzenesulfonamid]
melting point: 211 to 212 °C
IC50 [1]: 18.6 nM

COc1ccnc(CCc2nc3cc(-c4ccc(S(=O)(=O)NC5CCCCC5)cc4)cnc3[nH]2)c1 [Compound 20, N-Cyclohexyl-4-{2-[2-(4-methoxypyridin-2-yl)ethyl]-3H-imidazo-[4,5-b]pyridin-6-yl}benzenesulfonamid]
melting point: 199 to 200 °C
IC50 [1]: 50.1 nM

COc1ccnc(CCc2nc3cc(-c4ccc(S(=O)(=O)N(C)C)c(OC(F)(F)F)c4)cnc3[nH]2)c1 [Compound 21, 4-{2-[2-(4-Methoxypyridin-2-yl)ethyl]-3H-imidazo[4,5-b]pyridin-6-yl}-N,N-dimethyl-2-trifluormethoxy-benzenesulfonamide]
Inhibition of iNOS activity [measured as −logIC50] [1]: 6.95

COc1ccnc(CCc2nc3cc(-c4ccc(S(=O)(=O)N(C)C)c(C(F)(F)F)c4)cnc3[nH]2)c1 [Compound 22, 4-{2-[2-(4-Methoxypyridin-2-yl)ethyl]-3H-imidazo[4,5-b]pyridin-6-yl}-N,N-dimethyl-2-trifluormethyl-benzenesulfonamide]
Inhibition of iNOS activity [measured as −logIC50] [1]: 7

COc1ccnc(CCc2nc3cc(-c4ccc(S(=O)(=O)N(C)C)cc4C)cnc3[nH]2)c1 [Compound 23, 4-{2-[2-(4-Methoxypyridin-2-yl)ethyl]-3H-imidazo[4,5-b]pyridin-6-yl}-N,N-dimethyl-3-methyl-benzenesulfonamide]
melting point: 179 to 180 °C
IC50 [1]: 67.6 nM

COc1ccnc(CCc2nc3cc(-c4ccc(S(=O)(=O)N(C)c5ccc(Cl)cc5)cc4)cnc3[nH]2)c1 [Compound 28, N-(4-Chlorphenyl)-N-methyl-4-{2-[2-(4-methoxypyridin-2-yl)ethyl]-3H-imidazo-[4,5-b]pyridin-6-yl}benzenesulfonamid]
Inhibition of iNOS activity [measured as −logIC50] [1]: 7.41
